Results as given in patent publication US20160212997A1, “AGRICULTURAL CHEMICALS” (REDAG CROP PROTECTION LTD, priority 2013, published 2016).
Like-named read-outs stand apart in the source and are kept apart here.

Key:
aphids, Myzus persicae = test: Potter tower spray on aphids, knockdown and mortality; format: in vivo
Source text: The compounds were screened for insecticidal efficacy against aphids, Myzus persicae, Cabbage moth, Mamestra brassicae, diamond black moths, Plutella xylostella, red spider mites, Tetranychus urticae, whitefly, Trialeurodes vaporariorum, in terms of knockdown and mortality.
(§1) Myzus persicae, Cabbage moth, Mamestra brassicae, diamond back moths, Plutella xylostella, red spider mites, Tetranychus urticae, whitefly, Trialeurodes vaporariorum, were obtained from specified laboratory cultures. Mixed sex and age aphids and mites, moth larvae and whitefly scale infested leaves were used in the experiments. Environmental conditions were closely monitored and recorded and were within the optimal range of the target species.
(§2) The compounds were screened at a range of five concentrations, diluted in DMSO. Some of the compounds were screened against aphids, whitefly and red spider mites and other compounds were screened against cabbage moth, and diamond black moths. A carrier only and an untreated control will also be conducted. Treatments were applied directly onto the insects within Petri dishes, using a potter tower.
(§3) Twenty mites and ten aphids, scales and moth larvae were placed within a Petri dish, lined with a suitable leaf disc on a damp cotton wool pad. Scales were already on leaves. The Petri dishes were then sprayed using a potter tower. The number of knocked down and anthropods were assessed at 24 and 48 hours post treatment. Five replicates were be performed for each treatment, for each species.
(§4) For Tables 2, 4, 5 and 6, the compounds were diluted in DMSO containing 1% v/v Tween 20™. For Tables 2, 4, 5 and 6, the caterpillars were a mixture of Mamestra brassicae and Lacanobia oleracea.

[1] = test system: caterpillars, a mixture of Mamestra brassicae and Lacanobia oleracea; test: Potter tower spray on caterpillars, knockdown and mortality; format: in vivo; details: for pest or weed control at 0.000125 % strength / pest or weed control at 0.00025 % strength / pest or weed control at 0.0005 % strength / pest or weed control at 0.001 % strength / pest or weed control at 0.002 % strength / pest or weed control at 0.003125 % strength / pest or weed control at 0.0125 % strength / pest or weed control at 0.025 % strength: read-out: Average of % corrected affected
Source text: as §1, §2, §3, §4

[2] = Myzus persicae, 24 h, read-out: Average of % corrected affected
[3] = Myzus persicae, 48 h, read-out: Average of % corrected affected

## O=C(CSc1ccc(C2=NOC(c3cc(Cl)cc(Cl)c3)(C(F)(F)F)C2)s1)NCC(F)(F)F (centres unmarked) [Compound 19, 2-[[5-[5-(3,5-dichlorophenyl)-5-(trifluoromethyl)-4H-isoxazol-3-yl]-2-thienyl]sulfanyl]-N-(2,2,2-trifluoroethyl)acetamide]
aphids, Myzus persicae; [2]
  pest or weed control at 0.000125 % strength: 20 to 39%
  pest or weed control at 0.00025 % strength: 1 to 19%
  pest or weed control at 0.0005 % strength: 1 to 19%
  pest or weed control at 0.001 % strength: 20 to 39%
  pest or weed control at 0.002 % strength: 1 to 19%
aphids, Myzus persicae; [3]
  pest or weed control at 0.000125 % strength: 40 to 59%
  pest or weed control at 0.00025 % strength: 20 to 39%
  pest or weed control at 0.0005 % strength: 20 to 39%
  pest or weed control at 0.001 % strength: 40 to 59%
  pest or weed control at 0.002 % strength: 1 to 19%
[1]; 24 h
  pest or weed control at 0.000125 % strength: 0%
  pest or weed control at 0.00025 % strength: 0%
  pest or weed control at 0.0005 % strength: 1 to 19%
  pest or weed control at 0.001 % strength: 1 to 19%
  pest or weed control at 0.002 % strength: 1 to 19%
[1]; 48 h
  pest or weed control at 0.000125 % strength: 1 to 19%
  pest or weed control at 0.00025 % strength: 1 to 19%
  pest or weed control at 0.0005 % strength: 1 to 19%
  pest or weed control at 0.001 % strength: 1 to 19%
  pest or weed control at 0.002 % strength: 1 to 19%

## Cc1cc(C2=NCC(c3cc(Cl)cc(Cl)c3)(C(F)(F)F)O2)ccc1SCC(=O)NCC(F)(F)F (centres unmarked) [Compound 18, 2-[4-[5-(3,5-dichlorophenyl)-5-(trifluoromethyl)-4H-oxazol-2-yl]-2-methyl-phenyl]sulfanyl-N-(2,2,2-trifluoroethyl)acetamide]
aphids, Myzus persicae; Myzus persicae, 24 h, Aphids, 0.000125 % w/v, 24 hours post application, read-out: Average of % corrected affected
  pest or weed control at 0.000125 % strength: 1 to 19%
aphids, Myzus persicae; Myzus persicae, 24 h, Aphids, 0.00025 % w/v, 24 hours post application, read-out: Average of % corrected affected
  pest or weed control at 0.00025 % strength: 1 to 19%
aphids, Myzus persicae; Myzus persicae, 24 h, Aphids, 0.0005 % w/v, 24 hours post application, read-out: Average of % corrected affected
  pest or weed control at 0.0005 % strength: 1 to 19%
aphids, Myzus persicae; Myzus persicae, 24 h, Aphids, 0.001 % w/v, 24 hours post application, read-out: Average of % corrected affected
  pest or weed control at 0.001 % strength: 1 to 19%
aphids, Myzus persicae; Myzus persicae, 24 h, Aphids, 0.002 % w/v, 24 hours post application, read-out: Average of % corrected affected
  pest or weed control at 0.002 % strength: 1 to 19%
aphids, Myzus persicae; Myzus persicae, 48 h, Aphids, 0.000125 % w/v, 48 hours post application, read-out: Average of % corrected affected
  pest or weed control at 0.000125 % strength: 1 to 19%
aphids, Myzus persicae; Myzus persicae, 48 h, Aphids, 0.00025 % w/v, 48 hours post application, read-out: Average of % corrected affected
  pest or weed control at 0.00025 % strength: 1 to 19%
aphids, Myzus persicae; Myzus persicae, 48 h, Aphids, 0.0005 % w/v, 48 hours post application, read-out: Average of % corrected affected
  pest or weed control at 0.0005 % strength: 1 to 19%
aphids, Myzus persicae; Myzus persicae, 48 h, Aphids, 0.001 % w/v, 48 hours post application, read-out: Average of % corrected affected
  pest or weed control at 0.001 % strength: 1 to 19%
aphids, Myzus persicae; Myzus persicae, 48 h, Aphids, 0.002 % w/v, 48 hours post application, read-out: Average of % corrected affected
  pest or weed control at 0.002 % strength: 1 to 19%
[1]; 24 h, Caterpillars, 0.000125 % w/v, 24 hours post application
  pest or weed control at 0.000125 % strength: 1 to 19%
[1]; 24 h, Caterpillars, 0.00025 % w/v, 24 hours post application
  pest or weed control at 0.00025 % strength: 0%
[1]; 24 h, Caterpillars, 0.0005 % w/v, 24 hours post application
  pest or weed control at 0.0005 % strength: 1 to 19%
[1]; 24 h, Caterpillars, 0.001 % w/v, 24 hours post application
  pest or weed control at 0.001 % strength: 1 to 19%
[1]; 24 h, Caterpillars, 0.002 % w/v, 24 hours post application
  pest or weed control at 0.002 % strength: 1 to 19%
[1]; 48 h, Caterpillars, 0.000125 % w/v, 48 hours post application
  pest or weed control at 0.000125 % strength: 1 to 19%
[1]; 48 h, Caterpillars, 0.00025 % w/v, 48 hours post application
  pest or weed control at 0.00025 % strength: 1 to 19%
[1]; 48 h, Caterpillars, 0.0005 % w/v, 48 hours post application
  pest or weed control at 0.0005 % strength: 1 to 19%
[1]; 48 h, Caterpillars, 0.001 % w/v, 48 hours post application
  pest or weed control at 0.001 % strength: 1 to 19%
[1]; 48 h, Caterpillars, 0.002 % w/v, 48 hours post application
  pest or weed control at 0.002 % strength: 0%

## O=C(Nc1ccc(-c2cncnc2)oc1=O)C1CC1 [Compound 26, N-[2-Oxo-6-(5-pyrimidyl)pyran-3-yl]cyclopropanecarboxamide]
aphids, Myzus persicae; Aphids, 0.00625 % w/v, 24 hours post application
  Average of % corrected affected: E (A percentage control of from 1 to 19 is indicated by the letter E)
aphids, Myzus persicae; Aphids, 0.0125 % w/v, 48 hours post application
  Average of % corrected affected: E (A percentage control of from 1 to 19 is indicated by the letter E)
aphids, Myzus persicae; Aphids, 0.025 % w/v, 24 hours post application
  Average of % corrected affected: E (A percentage control of from 1 to 19 is indicated by the letter E)
aphids, Myzus persicae; Aphids, 0.025 % w/v, 48 hours post application
  Average of % corrected affected: E (A percentage control of from 1 to 19 is indicated by the letter E)
aphids, Myzus persicae; Aphids, 0.05 % w/v, 24 hours post application
  Average of % corrected affected: E (A percentage control of from 1 to 19 is indicated by the letter E)
aphids, Myzus persicae; Aphids, 0.05 % w/v, 48 hours post application
  Average of % corrected affected: E (A percentage control of from 1 to 19 is indicated by the letter E)
aphids, Myzus persicae; Myzus persicae, 24 h, Aphids, 0.00625 % w/v, 24 hours post application, read-out: Average of % corrected affected
  pest or weed control at 0.00625 % strength: 1 to 19%
aphids, Myzus persicae; Myzus persicae, 24 h, Aphids, 0.025 % w/v, 24 hours post application, read-out: Average of % corrected affected
  pest or weed control at 0.025 % strength: 1 to 19%
aphids, Myzus persicae; Myzus persicae, 24 h, Aphids, 0.05 % w/v, 24 hours post application, read-out: Average of % corrected affected
  pest or weed control at 0.05 % strength: 1 to 19%
aphids, Myzus persicae; Myzus persicae, 48 h, Aphids, 0.0125 % w/v, 48 hours post application, read-out: Average of % corrected affected
  pest or weed control at 0.0125 % strength: 1 to 19%
aphids, Myzus persicae; Myzus persicae, 48 h, Aphids, 0.05 % w/v, 48 hours post application, read-out: Average of % corrected affected
  pest or weed control at 0.05 % strength: 1 to 19%
[1]; 0.05%
  control against caterpillars compared with reference compound 25: greater control
[1]; 24 h, Caterpillars, 0.003125 % w/v, 24 hours post application
  pest or weed control at 0.003125 % strength: 1 to 19%
[1]; 24 h, Caterpillars, 0.0125 % w/v, 24 hours post application
  pest or weed control at 0.0125 % strength: 1 to 19%
[1]; 24 h, Caterpillars, 0.025 % w/v, 24 hours post application
  pest or weed control at 0.025 % strength: 1 to 19%
[1]; 48 h, Caterpillars, 0.003125 % w/v, 48 hours post application
  pest or weed control at 0.003125 % strength: 1 to 19%
[1]; 48 h, Caterpillars, 0.0125 % w/v, 48 hours post application
  pest or weed control at 0.0125 % strength: 1 to 19%
[1]; 48 h, Caterpillars, 0.025 % w/v, 48 hours post application
  pest or weed control at 0.025 % strength: 1 to 19%
[1]; Caterpillars, 0.003125 % w/v, 24 hours post application
  Average of % corrected affected: E (A percentage control of from 1 to 19 is indicated by the letter E)
[1]; Caterpillars, 0.003125 % w/v, 48 hours post application
  Average of % corrected affected: E (A percentage control of from 1 to 19 is indicated by the letter E)
[1]; Caterpillars, 0.0125 % w/v, 24 hours post application
  Average of % corrected affected: E (A percentage control of from 1 to 19 is indicated by the letter E)
[1]; Caterpillars, 0.0125 % w/v, 48 hours post application
  Average of % corrected affected: E (A percentage control of from 1 to 19 is indicated by the letter E)
[1]; Caterpillars, 0.025 % w/v, 24 hours post application
  Average of % corrected affected: E (A percentage control of from 1 to 19 is indicated by the letter E)
[1]; Caterpillars, 0.025 % w/v, 48 hours post application
  Average of % corrected affected: E (A percentage control of from 1 to 19 is indicated by the letter E)

## Cc1cc(C2=NOC(c3cc(Cl)cc(Cl)c3)(C(F)(F)F)C2)sc1SCC(=O)NCC(F)(F)F (centres unmarked) [Compound 20, 2-[[5-[5-(3,5-dichlorophenyl)-5-(trifluoromethyl)-4H-isoxazol-3-yl]-3-methyl-2-thienyl]sulfanyl]-N-(2,2,2-trifluoroethyl)acetamide]
aphids, Myzus persicae; 0.002% concentration
  control over aphids compared with reference compound 15: more control
aphids, Myzus persicae; [2]
  pest or weed control at 0.000125 % strength: 1 to 19%
  pest or weed control at 0.00025 % strength: 1 to 19%
  pest or weed control at 0.0005 % strength: 1 to 19%
  pest or weed control at 0.001 % strength: 1 to 19%
  pest or weed control at 0.002 % strength: 1 to 19%
aphids, Myzus persicae; [3]
  pest or weed control at 0.000125 % strength: 1 to 19%
  pest or weed control at 0.00025 % strength: 1 to 19%
  pest or weed control at 0.0005 % strength: 1 to 19%
  pest or weed control at 0.001 % strength: 1 to 19%
  pest or weed control at 0.002 % strength: 20 to 39%
[1]; 0.002% concentration
  control over caterpillars compared with reference compound 15: more control
[1]; 24 h
  pest or weed control at 0.000125 % strength: 1 to 19%
  pest or weed control at 0.00025 % strength: 1 to 19%
  pest or weed control at 0.0005 % strength: 1 to 19%
  pest or weed control at 0.001 % strength: 1 to 19%
  pest or weed control at 0.002 % strength: 20 to 39%
[1]; 48 h
  pest or weed control at 0.000125 % strength: 1 to 19%
  pest or weed control at 0.00025 % strength: 1 to 19%
  pest or weed control at 0.0005 % strength: 1 to 19%
  pest or weed control at 0.001 % strength: 1 to 19%
  pest or weed control at 0.002 % strength: 20 to 39%
